Experimental data reported in US8012492B2, “In vitro model of latent mycobacterial infection” (University of Central Florida Research Foundation, Inc., priority 2007, dated 2011).

How the values were obtained:
[1] = tested on: Mtb within TDM; format: cell-based, Mycobacterium tuberculosis
[2] = tested on: WT-H37Rv; format: cell-based, Mycobacterium tuberculosis

| SMILES | Resistance of Mtb recovered from TDM to antibiotics [1] | Development of Rif resistance, share of the Mtb population [1] | Rif resistant cells [2] | Rif-resistance [2] | Rif-resistant cells [2] |
| --- | --- | --- | --- | --- | --- |
| NNC(=O)c1ccncc1 [INH] | showed resistance to both antibiotics |  |  |  |  |
| CO[C@H]1/C=C/O[C@@]2(C)Oc3c(C)c(O)c4c(O)c(c(/C=N/N5CCN(C)CC5)c(O)c4c3C2=O)NC(=O)/C(C)=C\C=C\[C@H](C)[C@H](O)[C@@H](C)[C@@H](O)[C@@H](C)[C@H](OC(C)=O)[C@@H]1C [Rif, Rifampicin] |  | about 25% | about 10% | up to 25% | about 0.03% |
